In patent US9187484B2 (Southern Research Institute, priority 2012, dated 2015):

system: WT-LRRK2 or G2019S-LRRK2; assay: Inhibition of LRRK2 phosphorylation (pS935 antibody) in lysates of transfected HEK-293T cells; format: cell-based; details: HEK-293T cells transiently transfected with either WT-LRRK2 or G2019S-LRRK2
Description: To test whether Example 90 and Example 34 can inhibit LRRK2 phosphorylation, an antibody commercially available from Epitomics directed against the serine residue number 935 on LRRK2 from lysates generated from HEK-293T cells transiently transfected with either WT-LRRK2 or G2019S-LRRK2 protein.

Row | Structure (SMILES) | levels of pS935 on LRRK2
1 | CCC(Sc1ccc2nnc(-c3cccs3)n2n1)C(=O)N1CCCCC1 (stereo not shown) [Example 34, 1-(piperidin-1-yl)-2-((3-(thiophen-2-yl)-[1,2,4]triazolo[4,3-b]pyridazin-6-yl)thio)butan-1-one] | partially inhibited

target: T1, LRRK2 (G2019S) (Homo sapiens, UniProt Q5S007, G2019S); assay: LRRK2 inhibition, radiometric kinase assay with recombinant GST-LRRK2 (delta970) and peptide substrate; format: biochemical; details: GST-LRRK2 (delta970) G2019S 30 nM, ATP ~52 μM (Km), 30 min at 30° C.
T1 construct: Recombinant GST-LRRK2 (delta970), purified from baculovirus infected insect cells (SF9); GST (N); host or cells: baculovirus infected insect cells (SF9)
T1 sequence (Q5S007 970-2527 G2019S limits assumed): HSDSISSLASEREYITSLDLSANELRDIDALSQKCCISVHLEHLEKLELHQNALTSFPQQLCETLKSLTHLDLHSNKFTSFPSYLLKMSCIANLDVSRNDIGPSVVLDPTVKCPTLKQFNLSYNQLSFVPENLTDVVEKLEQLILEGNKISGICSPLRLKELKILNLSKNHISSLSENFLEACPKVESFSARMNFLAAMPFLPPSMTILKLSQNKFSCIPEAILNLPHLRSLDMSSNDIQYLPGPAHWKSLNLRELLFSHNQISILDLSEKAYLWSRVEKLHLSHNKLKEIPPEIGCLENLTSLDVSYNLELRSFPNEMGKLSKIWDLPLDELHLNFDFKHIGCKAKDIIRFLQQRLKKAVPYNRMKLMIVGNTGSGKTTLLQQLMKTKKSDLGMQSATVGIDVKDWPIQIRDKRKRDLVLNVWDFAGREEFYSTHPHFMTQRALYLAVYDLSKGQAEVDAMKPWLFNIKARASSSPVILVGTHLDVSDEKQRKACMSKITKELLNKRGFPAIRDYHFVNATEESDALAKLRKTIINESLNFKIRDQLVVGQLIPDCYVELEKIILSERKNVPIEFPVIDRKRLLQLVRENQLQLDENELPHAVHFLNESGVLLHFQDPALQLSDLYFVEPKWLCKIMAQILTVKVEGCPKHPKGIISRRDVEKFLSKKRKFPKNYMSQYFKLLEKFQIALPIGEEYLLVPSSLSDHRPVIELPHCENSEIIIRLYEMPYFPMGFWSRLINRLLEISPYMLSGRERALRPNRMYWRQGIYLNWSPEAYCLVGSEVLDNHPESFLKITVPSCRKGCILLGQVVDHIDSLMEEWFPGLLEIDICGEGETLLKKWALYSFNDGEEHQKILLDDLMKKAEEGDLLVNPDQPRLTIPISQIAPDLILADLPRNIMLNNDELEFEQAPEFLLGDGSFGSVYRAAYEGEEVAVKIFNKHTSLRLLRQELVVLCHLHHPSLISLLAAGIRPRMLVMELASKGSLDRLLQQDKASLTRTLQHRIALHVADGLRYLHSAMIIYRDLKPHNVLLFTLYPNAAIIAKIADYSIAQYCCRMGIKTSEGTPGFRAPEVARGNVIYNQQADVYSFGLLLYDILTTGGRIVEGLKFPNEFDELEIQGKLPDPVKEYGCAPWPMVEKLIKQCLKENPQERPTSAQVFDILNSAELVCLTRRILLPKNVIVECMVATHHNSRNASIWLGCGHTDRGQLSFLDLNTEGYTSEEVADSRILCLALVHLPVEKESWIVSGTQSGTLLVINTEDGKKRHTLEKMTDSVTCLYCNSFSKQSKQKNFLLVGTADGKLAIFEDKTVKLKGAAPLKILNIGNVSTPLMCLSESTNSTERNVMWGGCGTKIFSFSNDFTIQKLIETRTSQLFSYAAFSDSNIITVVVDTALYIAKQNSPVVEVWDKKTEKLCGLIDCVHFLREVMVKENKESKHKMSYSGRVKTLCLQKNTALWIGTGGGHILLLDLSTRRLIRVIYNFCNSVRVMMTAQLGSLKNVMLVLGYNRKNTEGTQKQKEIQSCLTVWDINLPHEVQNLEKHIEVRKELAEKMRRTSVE
Procedure: Compounds were assessed for inhibition of LRRK2 inhibition using the following procedure.
Recombinant GST-LRRK2 (delta970), purified from baculovirus infected insect cells (SF9), at least 90% pure and either wild-type sequence or bearing the pathogenic G2019S mutation, was combined into a kinase buffer at 30 nM concentration. Kinase buffer consists of 50 mM Tris HCl pH 7.4, 1 mM EDTA, and 50 μM peptide substrate (amino acid sequence […]). Experimental compounds or control (no compound) were added at desired concentrations in DMSO and water, where final concentration of DMSO in kinase reactions was 0.1% for all drug concentrations. Activation buffer that consists of a final concentration in the reactions of 10 mM MgCl2 and ATP (˜92 μM for WT-LRRK2 reactions and ˜52 μM for G2019S-LRRK2, which represent respective Km ATP concentrations) were added to each reaction, in addition to 0.5 μCi of gamma-32-P-dATP per reaction. Reactions were incubated at 1400 RPM at 30° C. for 30 min. and then spotted in triplicate directly onto a slot-blot apparatus fitted with phospho-cellulose paper and allowed to dry. Each slot was then washed with 10 mM phosphoric acid buffer until beta-radiation could not be detected in eluted wash buffer, usually ˜1 mL per slot. Paper within each slot were excised and radiation measured by liquid scintillation.

Row | Structure (SMILES) | IC50
2 | CCC(Sc1ccc2nnc(-c3cccs3)n2n1)C(=O)N1CCCCC1 (stereo not shown) [Example 34, 1-(piperidin-1-yl)-2-((3-(thiophen-2-yl)-[1,2,4]triazolo[4,3-b]pyridazin-6-yl)thio)butan-1-one] | < 100 nM
3 | CC(Sc1ccc2nnc(-c3cccs3)n2n1)C(=O)N1CCC1 (stereo not shown) [Example 101, 1-(azetidin-1-yl)-2-((3-(thiophen-2-yl)-[1,2,4]triazolo[4,3-b]pyridazin-6-yl)thio)propan-1-one] | < 100 nM
4 | NC(=O)CSc1ccc2nnc(-c3nccs3)n2n1 [Example 37, 2-((3-(thiazol-2-yl)-[1,2,4]triazolo[4,3-b]pyridazin-6-yl)thio)acetamide] | ≥ 5000 nM
5 | CCC(Sc1ccc2nnc(-c3ccc(F)cc3)n2n1)C(=O)Nc1cnc2ccccc2c1 (stereo not shown) [Example 12] | ≥ 5000 nM
6 | CC(C)(Sc1ccc2nnc(-c3cccs3)n2n1)C(=O)N1CCCC1 [Example 107, 2-methyl-1-(pyrrolidin-1-yl)-2-((3-(thiophen-2-yl)-[1,2,4]triazolo[4,3-b]pyridazin-6-yl)thio)propan-1-one] | 1000 to 5000 nM
7 | NC(=O)CSc1ccc2nnc(-c3ccncc3)n2n1 [Example 4, 2-((3-(pyridin-4-yl)-[1,2,4]triazolo[4,3-b]pyridazin-6-yl)thio)acetamide] | ≥ 5000 nM
8 | CCC(Sc1ccc2nnc(-c3ccccc3OC)n2n1)C(N)=O (stereo not shown) [Example 69, 2-((3-(2-methoxyphenyl)-[1,2,4]triazolo[4,3-b]pyridazin-6-yl)thio)butanamide] | ≥ 5000 nM
9 | CCC(Sc1ccc2nnc(-c3ccc(C(F)(F)F)cc3)n2n1)C(=O)N1CCCCC1 (stereo not shown) [Example 95, 1-(piperidin-1-yl)-2-((3-(4-(trifluoromethyl)phenyl)-[1,2,4]triazolo[4,3-b]pyridazin-6-yl)thio)butan-1-one] | 1000 to 5000 nM
10 | CCOC(=O)C(CC)Sc1ccc2nnc(-c3ccc(OC)cc3)n2n1 (stereo not shown) [Example 65, ethyl 2-((3-(4-methoxyphenyl)-[1,2,4]triazolo[4,3-b]pyridazin-6-yl)thio)butanoate] | ≥ 5000 nM
11 | O=C(O)CSc1ccc2nnc(-c3cc4ccccc4s3)n2n1 [Example 30, 2-((3-(benzo[b]thiophen-2-yl)-[1,2,4]triazolo[4,3-b]pyridazin-6-yl)thio)acetic acid] | ≥ 5000 nM
12 | O=C(O)CSc1ccc2nnc(-c3ccco3)n2n1 [Example 28, 2-((3-(furan-2-yl)-[1,2,4]triazolo[4,3-b]pyridazin-6-yl)thio)acetic acid] | ≥ 5000 nM
13 | CC(Sc1ccc2nnc(-c3cnccn3)n2n1)C(=O)N1CCCCC1 (stereo not shown) [Example 108, 1-(piperidin-1-yl)-2-((3-(pyrazin-2-yl)-[1,2,4]triazolo[4,3-b]pyridazin-6-yl)thio)propan-1-one] | 100 to 1000 nM
14 | Cc1scc(-c2nnc3ccc(SCC(N)=O)nn23)c1-c1ccccc1 [Example 40, 2-((3-(5-methyl-4-phenylthiophen-3-yl)-[1,2,4]triazolo[4,3-b]pyridazin-6-yl)thio)acetamide] | ≥ 5000 nM
15 | NC(=O)CSc1ccc2nnc(-c3ccsc3)n2n1 [Example 5, 2-((3-(thiophen-3-yl)-[1,2,4]triazolo[4,3-b]pyridazin-6-yl)thio)acetamide] | 100 to 1000 nM
16 | CCC(Sc1ccc2nnc(-c3ccc(F)cc3)n2n1)C(=O)N1CCCCC1 (stereo not shown) [Example 9, 2-((3-(4-fluorophenyl)-[1,2,4]triazolo[4,3-b]pyridazin-6-yl)thio)-1-(piperidin-1-yl)butan-1-one] | 1000 to 5000 nM
17 | CC(Sc1ccc2nnc(-c3ccn(C)n3)n2n1)C(=O)N1CCCCC1 (stereo not shown) [Example 113, 2-((3-(1-methyl-1H-pyrazol-3-yl)-[1,2,4]triazolo[4,3-b]pyridazin-6-yl)thio)-1-(piperidin-1-yl)propan-1-one] | 100 to 1000 nM
18 | CCCCC(Sc1ccc2nnc(-c3cccs3)n2n1)C(=O)O (stereo not shown) [Example 41, 2-((3-(thiophen-2-yl)-[1,2,4]triazolo[4,3-b]pyridazin-6-yl)thio)hexanoic acid] | 1000 to 5000 nM
19 | CCOC(=O)C(CC)Sc1ccc2nnc(-c3ccccc3F)n2n1 (stereo not shown) [Example 74, ethyl 2-((3-(2-fluorophenyl)-[1,2,4]triazolo[4,3-b]pyridazin-6-yl)thio)butanoate] | 1000 to 5000 nM

Row | Structure (SMILES) | IC50
20 | CCC(Sc1ccc2nnc(-c3cccs3)n2n1)C(=O)N1CCCC1 (stereo not shown) [Example 46, 1-(pyrrolidin-1-yl)-2-((3-(thiophen-2-yl)-[1,2,4]triazolo[4,3-b]pyridazin-6-yl)thio)butan-1-one] | < 100 nM
21 | CC(Sc1ccc2nnc(-c3ccnn3C)n2n1)C(=O)N1CCCCC1 (stereo not shown) [Example 112, 2-((3-(1-methyl-1H-pyrazol-5-yl)-[1,2,4]triazolo[4,3-b]pyridazin-6-yl)thio)-1-(piperidin-1-yl)propan-1-one] | ≥ 5000 nM
22 | NC(=O)CSc1ccc2nnc(-c3ccccn3)n2n1 [Example 16, 2-((3-(pyridin-2-yl)-[1,2,4]triazolo[4,3-b]pyridazin-6-yl)thio)acetamide] | ≥ 5000 nM
23 | CCC(Sc1ccc2nnc(-c3ccc(F)cc3)n2n1)C(=O)Nc1ccccc1C(F)(F)F (stereo not shown) [Example 14, 2-((3-(4-fluorophenyl)-[1,2,4]triazolo[4,3-b]pyridazin-6-yl)thio)-N-(2-(trifluoromethyl)phenyl)butanamide] | ≥ 5000 nM
24 | CC(Sc1ccc2nnc(-c3nccs3)n2n1)C(=O)O (stereo not shown) [Example 124, 2-((3-(thiazol-2-yl)-[1,2,4]triazolo[4,3-b]pyridazin-6-yl)thio)propanoic acid] | 100 to 1000 nM
25 | CCC(Sc1ccc2nnc(-c3ccc(F)c(F)c3)n2n1)C(=O)O (stereo not shown) [Example 54, 2-((3-(3,4-difluorophenyl)-[1,2,4]triazolo[4,3-b]pyridazin-6-yl)thio)butanoic acid] | 100 to 1000 nM
26 | CCC(Sc1ccc2nnc(-c3cccs3)n2n1)C(=O)NC1CCCCC1 (stereo not shown) [Example 52, N-cyclohexyl-2-((3-(thiophen-2-yl)-[1,2,4]triazolo[4,3-b]pyridazin-6-yl)thio)butanamide] | 100 to 1000 nM
27 | CCCC(Sc1ccc2nnc(-c3cccs3)n2n1)C(=O)O (stereo not shown) [Example 92, 2-((3-(thiophen-2-yl)-[1,2,4]triazolo[4,3-b]pyridazin-6-yl)thio)pentanoic acid] | 100 to 1000 nM
28 | CC(Sc1ccc2nnc(-c3cccs3)n2n1)C(=O)O (stereo not shown) [Example 36, 2-((3-(thiophen-2-yl)-[1,2,4]triazolo[4,3-b]pyridazin-6-yl)thio)propanoic acid] | 100 to 1000 nM
29 | CCC(Sc1ccc2nnc(-c3nccs3)n2n1)C(=O)N1CCCCC1 (stereo not shown) [Example 60, 1-(piperidin-1-yl)-2-((3-(thiazol-2-yl)-[1,2,4]triazolo[4,3-b]pyridazin-6-yl)thio)butan-1-one] | 100 to 1000 nM
30 | CCC(Sc1ccc2nnc(-c3ccc(C(F)(F)F)cc3)n2n1)C(=O)O (stereo not shown) [Example 53, 2-((3-(4-(trifluoromethyl)phenyl)-[1,2,4]triazolo[4,3-b]pyridazin-6-yl)thio)butanoic acid] | ≥ 5000 nM
31 | c1csc(-c2nnc3ccc(N4CCCCC4)nn23)c1 [Example 20, 6-(piperidin-1-yl)-3-(thiophen-2-yl)-[1,2,4]triazolo[4,3-b]pyridazine] | ≥ 5000 nM
32 | O=C(CSc1ccc2nnc(-c3ccc(F)cc3)n2n1)Nc1nccs1 [Example 43, 2-((3-(4-fluorophenyl)-[1,2,4]triazolo[4,3-b]pyridazin-6-yl)thio)-N-(thiazol-2-yl)acetamide] | ≥ 5000 nM
33 | O=C(O)CSc1ccc2nnc(-c3cc4ccccc4o3)n2n1 [Example 31, 2-((3-(benzofuran-2-yl)-[1,2,4]triazolo[4,3-b]pyridazin-6-yl)thio)acetic acid] | ≥ 5000 nM
34 | CCC(Sc1ccc2nnc(-c3ccc(Cl)s3)n2n1)C(=O)N1CCCC1 (stereo not shown) [Example 63, 2-((3-(5-chlorothiophen-2-yl)-[1,2,4]triazolo[4,3-b]pyridazin-6-yl)thio)-1-(pyrrolidin-1-yl)butan-1-one] | 100 to 1000 nM
35 | CC(Sc1ccc2nnc(-c3ccn[nH]3)n2n1)C(=O)N1CCCCC1 (stereo not shown) [Example 115, 2-((3-(1H-pyrazol-5-yl)-[1,2,4]triazolo[4,3-b]pyridazin-6-yl)thio)-1-(piperidin-1-yl)propan-1-one] | 100 to 1000 nM
36 | CCC(Sc1ccc2nnc(-c3cccs3)n2n1)C(=O)Nc1ccccc1 (stereo not shown) [Example 86, N-phenyl-2-((3-(thiophen-2-yl)-[1,2,4]triazolo[4,3-b]pyridazin-6-yl)thio)butanamide] | ≥ 5000 nM
37 | CCOC(=O)C(CC)Sc1ccc2nnc(-c3ccc(F)cc3)n2n1 (stereo not shown) [Example 1, ethyl 2-((3-(4-fluorophenyl)-[1,2,4]triazolo[4,3-b]pyridazin-6-yl)thio)butanoate] | ≥ 5000 nM
